Laboratory results as given in patent publication US7704995B2 (Exelixis, Inc., priority 2003, dated 2010).

Target: T1, Chk1 (Homo sapiens, UniProt O14757)
T1 construct: purchased Upstate Biotechnology
T1 sequence (O14757 1-476): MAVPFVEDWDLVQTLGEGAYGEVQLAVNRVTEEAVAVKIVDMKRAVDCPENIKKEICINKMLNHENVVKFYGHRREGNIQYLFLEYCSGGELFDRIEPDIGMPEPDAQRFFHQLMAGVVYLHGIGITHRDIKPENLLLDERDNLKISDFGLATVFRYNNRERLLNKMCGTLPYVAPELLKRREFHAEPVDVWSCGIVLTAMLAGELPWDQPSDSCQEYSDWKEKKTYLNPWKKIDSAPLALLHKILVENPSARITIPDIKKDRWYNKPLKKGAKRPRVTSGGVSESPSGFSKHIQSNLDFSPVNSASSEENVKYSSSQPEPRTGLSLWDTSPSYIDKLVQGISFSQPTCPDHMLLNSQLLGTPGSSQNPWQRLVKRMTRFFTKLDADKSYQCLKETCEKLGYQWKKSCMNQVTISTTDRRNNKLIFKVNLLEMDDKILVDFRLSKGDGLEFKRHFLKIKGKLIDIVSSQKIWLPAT
Assay: Chk1 kinase assay: incorporation of γ-33P ATP into immobilized myelin basic protein
Assay type: biochemical
Details: read-out: Chk1 IC50
Method: Chk1 and Chk2 assays were performed by measuring incorporation of γ-^33P ATP into immobilized myelin basic protein (MBP). High binding white 384 well plates (Greiner) were coated with MBP (Sigma #M-1891) by incubation of 60 ul/well of 20 μg/ml MBP in Tris-buffered saline (TBS; 50 mM Tris pH 8.0, 138 mM NaCl, 2.7 mM KCl) for 24 hours at 4° C. Plates were washed 3× with 100 μl TBS. Kinase reactions were carried out in a total volume of 34 μl in kinase buffer (5 mM Hepes pH 7.6, 15 mM NaCl, 0.01% bovine gamma globulin (Sigma #I-5506), 10 mM MgCl2, 1 mM DTT, 0.02% TritonX-100). Compound dilutions were performed in DMSO and added to assay wells to a final DMSO concentration of 1%. Each data point was measured in duplicate, and at least two duplicate assays were performed for each individual compound determination. Chk1 and Chk2 enzymes (Upstate Biotechnology) were added to final concentrations of 10 nM (Chk1) or 20 nM (Chk2). A mixture of unlabeled ATP and γ-^33P ATP was added to start the reaction (2×10^6 cpm of γ-^33P ATP per well (3000 Ci/mmole) and either 10 μM or 30 μM unlabeled ATP (for Chk1 and Chk2 assays respectively). The reaction was carried out for 1 hour at room temperature with shaking. Plates were washed 7× with TBS, followed by the addition of 50 μl/well scintillation fluid (Wallac). Plates were read using a Wallac Trilux counter. This is only one format of such assays, various other formats are possible, as known to those skilled in the art.
The above assay procedure can be used to determine the IC50 for inhibition and/or the inhibition constant Ki. The IC50 is defined as the concentration of compound required to reduce the enzyme activity by 50% under the conditions of the assay. […] The Ki for a compound may be determined from the IC50 based on three assumptions. First, only one compound molecule binds to the enzyme and there is no cooperativity. […] Third, the enzymatic rate of the enzyme-inhibitor complex is zero. The rate (i.e., compound concentration) data are fitted to the equation: […]

Row | SMILES | IC50
1 | CNC(=O)c1nc(-c2cccc(C(=O)NCCc3ccccc3)c2)cnc1N [Example 94, 3-amino-N-methyl-6-(3-{[(2-phenylethyl)amino]carbonyl}phenyl)pyrazine-2-carboxamide] | 50 to 1000 nM
2 | CNC(=O)c1nc(-c2cccc(C(=O)NCc3ccc(OC)cc3)c2)cnc1N [Example 95, 3-amino-N-methyl-6-{3-[({[4-(methyloxy)phenyl]methyl}amino)carbonyl]phenyl}pyrazine-2-carboxamide] | 50 to 1000 nM
3 | CNC(=O)c1nc(-c2cccc(C(=O)N[C@@H]3CCc4ccccc43)c2)cnc1N [Example 96, 3-amino-6-(3-{[(1R)-2,3-dihydro-1H-inden-1-ylamino]carbonyl}phenyl)-N-methylpyrazine-2-carboxamide] | 1000 to 10000 nM
4 | CNC(=O)c1nc(-c2cccc(C(=O)N[C@H]3CCc4ccccc43)c2)cnc1N [Example 97, 3-amino-6-(3-{[(1S)-2,3-dihydro-1H-inden-1-ylamino]carbonyl}phenyl)-N-methylpyrazine-2-carboxamide] | 50 to 1000 nM
5 | CNC(=O)c1nc(-c2cccc(C(=O)NCc3ccc(Cl)cc3)c2)cnc1N [Example 98, 3-amino-6-[3-({[(4-chlorophenyl)methyl]amino}carbonyl)phenyl]-N-methylpyrazine-2-carboxamide] | 50 to 1000 nM
6 | CNC(=O)c1nc(-c2cccc(C(=O)N(C)Cc3ccccc3)c2)cnc1N [Example 99, 3-amino-N-methyl-6-(3-{[methyl(phenylmethyl)amino]carbonyl}phenyl)pyrazine-2-carboxamide] | 1000 to 10000 nM
7 | CNC(=O)c1nc(-c2cccc(C(=O)NCc3ccc(Cl)cc3Cl)c2)cnc1N [Example 100, 3-amino-6-[3-({[(2,4-dichlorophenyl)methyl]amino}carbonyl)phenyl]-N-methylpyrazine-2-carboxamide] | 50 to 1000 nM
8 | CNC(=O)c1nc(-c2cccc(C(=O)NCc3ccc(C)cc3)c2)cnc1N [Example 101, 3-amino-N-methyl-6-[3-({[(4-methylphenyl)methyl]amino}carbonyl)phenyl]pyrazine-2-carboxamide] | 50 to 1000 nM
9 | CNC(=O)c1nc(-c2cccc(C(=O)NCc3ccc(C(F)(F)F)cc3)c2)cnc1N [Example 102, 3-amino-N-methyl-6-{3-[({[4-(trifluoromethyl)phenyl]methyl}amino)carbonyl]phenyl}pyrazine-2-carboxamide] | 50 to 1000 nM
10 | CNC(=O)c1nc(-c2cccc(C(=O)NCc3ccc(F)cc3)c2)cnc1N [Example 103, 3-amino-6-[3-({[(4-fluorophenyl)methyl]amino}carbonyl)phenyl]-N-methylpyrazine-2-carboxamide] | 50 to 1000 nM
11 | CNC(=O)c1nc(-c2cccc(C(=O)NC3Cc4ccccc4C3)c2)cnc1N [Example 104, 3-amino-6-{3-[(2,3-dihydro-1H-inden-2-ylamino)carbonyl]phenyl}-N-methylpyrazine-2-carboxamide] | 50 to 1000 nM
12 | CNC(=O)c1nc(-c2cccc(NC(=O)c3cccc(OC)c3)c2)cnc1N [Example 105, 3-amino-N-methyl-6-[3-({[3-(methyloxy)phenyl]carbonyl}amino)phenyl]pyrazine-2-carboxamide] | 50 to 1000 nM
13 | CNC(=O)c1nc(-c2cccc(NC(=O)c3ccc(OC)cc3)c2)cnc1N [Example 106, 3-amino-N-methyl-6-[3-({[4-(methyloxy)phenyl]carbonyl}amino)phenyl]pyrazine-2-carboxamide] | 50 to 1000 nM
14 | CNC(=O)c1nc(-c2cccc(C(=O)NCc3cccc(OC)c3)c2)cnc1N [Example 107, 3-amino-N-methyl-6-{3-[({[3-(methyloxy)phenyl]methyl}amino)carbonyl]phenyl}pyrazine-2-carboxamide] | 50 to 1000 nM
15 | CNC(=O)c1nc(-c2cccc(C(=O)N[C@H](C)c3ccc(OC)cc3)c2)cnc1N [Example 108, 3-amino-N-methyl-6-{3-[({(1R)-1-[4-(methyloxy)phenyl]ethyl}amino)carbonyl]phenyl}pyrazine-2-carboxamide] | 1000 to 10000 nM
16 | CNC(=O)c1nc(-c2cccc(C(=O)NCc3ccccc3C(F)(F)F)c2)cnc1N [Example 109, 3-amino-N-methyl-6-{3-[({[2-(trifluoromethyl)phenyl]methyl}amino)carbonyl]phenyl}pyrazine-2-carboxamide] | 50 to 1000 nM

Row | SMILES | IC50
17 | CNC(=O)c1nc(-c2cccc(C(=O)NCc3cccc(F)c3)c2)cnc1N [Example 110, 3-amino-6-[3-({[(3-fluorophenyl)methyl]amino}carbonyl)phenyl]-N-methylpyrazine-2-carboxamide] | 50 to 1000 nM
18 | CNC(=O)c1nc(-c2cccc(NC(=O)c3ccc(Cl)cc3)c2)cnc1N [Example 111, 3-amino-6-(3-{[(4-chlorophenyl)carbonyl]amino}phenyl)-N-methylpyrazine-2-carboxamide] | 50 to 1000 nM
19 | CNC(=O)c1nc(-c2cccc(C(=O)NC(C)c3ccc(F)cc3)c2)cnc1N (stereo not shown) [Example 112, 3-amino-6-[3-({[1-(4-fluorophenyl)ethyl]amino}carbonyl)phenyl]-N-methylpyrazine-2-carboxamide] | 1000 to 10000 nM
20 | CNC(=O)c1nc(-c2cccc(C(=O)NCc3cccc(OC)c3OC)c2)cnc1N [Example 113, 3-amino-6-{3-[({[2,3-bis(methyloxy)phenyl]methyl}amino)carbonyl]phenyl}-N-methylpyrazine-2-carboxamide] | 50 to 1000 nM
21 | CNC(=O)c1nc(-c2cccc(C(=O)N(Cc3ccccc3)Cc3ccccc3)c2)cnc1N [Example 114, 3-amino-6-(3-{[bis(phenylmethyl)amino]carbonyl}phenyl)-N-methylpyrazine-2-carboxamide] | 1000 to 10000 nM
22 | CNC(=O)c1nc(-c2cccc(C(=O)NCc3ccc(OC)cc3OC)c2)cnc1N [Example 115, 3-amino-6-{3-[({[2,4-bis(methyloxy)phenyl]methyl}amino)carbonyl]phenyl}-N-methylpyrazine-2-carboxamide] | 50 to 1000 nM
23 | CCN(Cc1ccncc1)C(=O)c1cccc(-c2cnc(N)c(C(=O)NC)n2)c1 [Example 116, 3-amino-6-(3-{[ethyl(pyridin-4-ylmethyl)amino]carbonyl}phenyl)-N-methylpyrazine-2-carboxamide] | 1000 to 10000 nM
24 | CNC(=O)c1nc(-c2cccc(C(=O)N3CCN(Cc4ccccc4)CC3)c2)cnc1N [Example 117, 3-amino-N-methyl-6-(3-{[4-(phenylmethyl)piperazin-1-yl]carbonyl}phenyl)pyrazine-2-carboxamide] | 1000 to 10000 nM
25 | CNC(=O)c1nc(-c2cccc(C(=O)NC3CCN(Cc4ccccc4)CC3)c2)cnc1N [Example 118, 3-amino-N-methyl-6-[3-({[1-(phenylmethyl)piperidin-4-yl]amino}carbonyl)phenyl]pyrazine-2-carboxamide] | 50 to 1000 nM
26 | CNC(=O)c1nc(-c2cccc(NC(=O)c3ccc(C)cc3)c2)cnc1N [Example 119, 3-amino-N-methyl-6-(3-{[(4-methylphenyl)carbonyl]amino}phenyl)pyrazine-2-carboxamide] | 50 to 1000 nM
27 | CNC(=O)c1nc(-c2cccc(C(=O)NCc3cnc(C)cn3)c2)cnc1N [Example 120, 3-amino-N-methyl-6-[3-({[(5-methylpyrazin-2-yl)methyl]amino}carbonyl)phenyl]pyrazine-2-carboxamide] | 1000 to 10000 nM
28 | CNC(=O)c1nc(-c2cccc(C(=O)NCc3ccccn3)c2)cnc1N [Example 121, 3-amino-N-methyl-6-(3-{[(pyridin-2-ylmethyl)amino]carbonyl}phenyl)pyrazine-2-carboxamide] | 50 to 1000 nM
29 | CNC(=O)c1nc(-c2cccc(C(=O)NCc3cccnc3)c2)cnc1N [Example 122, 3-amino-N-methyl-6-(3-{[(pyridin-3-ylmethyl)amino]carbonyl}phenyl)pyrazine-2-carboxamide] | 50 to 1000 nM
30 | CNC(=O)c1nc(-c2cccc(C(=O)NCc3ccncc3)c2)cnc1N [Example 123, 3-amino-N-methyl-6-(3-{[(pyridin-4-ylmethyl)amino]carbonyl}phenyl)pyrazine-2-carboxamide] | 50 to 1000 nM
31 | CNC(=O)c1nc(-c2cccc(NC(=O)c3ccco3)c2)cnc1N [Example 124, 3-amino-6-{3-[(furan-2-ylcarbonyl)amino]phenyl}-N-methylpyrazine-2-carboxamide] | 50 to 1000 nM
